# Experimental data published in patent US20240191217A1, “CAS10-BASED ASSAY FOR NUCLEIC ACID DETECTION” (priority 2021, published 2024).
# Assays:
# Format in all cases: biochemical
# [1] = biological target: T1, VmeNucC (Vibrio metoecus, UniProt P0DUD6); assay: NucC assay using synthetic cA3 as activator; details: FIG. 6
# T1 construct: His8 (TEV-cleavable, vector pEV5HisTEV) (N, cleaved yes); made in house; host or cells: E. coli C43(DE3)
# Experimental: FIG. 6: NucC assay using synthetic cA3 as activator. A: Selected fluorescence signal curves. B: The fluorescence intensities of measurements from 28-30 min reaction time were used for one-way ANOVA analysis. Multiplicity adjusted P values were calculated by Dunnett's multiple comparisons test (N=7). The assay was performed in duplicate. C: selected data from B with expanded y scale. ns: not significant, P value>0.05; ***: P value<0.001; ****: P value<0.0001.
# (§1) All assays were performed on a FluoStar Omega plate reader (BMG Labtech) using fluorescence detection (λex/em 544/590 nm) and Corning black, non-binding half-area 96-well plates. […] Fluorescence was measured in 30 s intervals at 37° C. for up to 60 min. […] To determine limit of detection, the means of fluorescence intensities ranging between 28 and 32 min was analysed by one-way ANOVA and for multiple comparisons the Brown-Forsythe and Welch ANOVA test was applied. […] Relative activities between reaction conditions was determined by comparing the relative rates of the reactions. Rates were assumed to be proportional to the change in fluorescence signal over time and calculated from the slopes of linear regression analysis. Target specificity was analysed by extracting the time point (Tt) when the fluorescence intensity crossed a threshold value. […]
# [2] = biological target: T2, NucC (Vibrio metoecus, UniProt P0DUD6); assay: Degradation of cA3 by NucC, liquid chromatography with UV detection; details: 100 μM cA3 with 0.5 μM NucC in reaction buffer for 60 min
# T2 construct: His8 (TEV-cleavable, vector pEV5HisTEV) (N, cleaved yes); made in house; host or cells: E. coli C43(DE3)
# Experimental: LC chromatograms with UV monitoring at 254 nm showing the reaction of 100 μM cA3 with 0.5 μM NucC under assay conditions after 15 and 60 min. A reaction in which NucC had been omitted was allowed to proceed for 60 min.
# Some Csx1/Csm6 family proteins have an intrinsic “ring nuclease” activity for the degradation of their cOA activator—an activity that is probably important in vivo for the control of the CRISPR mediated immune response (9). In the context of assay development however, this is an undesirable characteristic. Furthermore, it is difficult to remove this activity from Csx1/Csm6 family proteins as the activity is closely linked with cOA binding and/or with the HEPN ribonuclease activity (18, 19). To determine whether NucC degrades its cA3 activator, we incubated 100 μM cA3 with […] NucC in reaction buffer for 60 min and monitored the products by liquid chromatography and UV detection (FIG. 5) after removal of the enzyme by ultracentrifugation (MWCO 3 kDa). […] This is perhaps not surprising given that NucC is a double stranded DNase and the activator is a cyclic ribonucleotide.
# [3] = biological target: T1, VmeNucC; assay: Effect of ATP on NucC nuclease activity (fluorescent DNA duplex reporter)
# Experimental: FIG. 4: Factors influencing NucC activity. Relative activities were determined by comparing the relative increase in fluorescence signal over time. A: Effect of NaCl concentration. B: NucC activity in different buffers. C: Effect of ATP on NucC nuclease activity.
# as §1, with “value. The threshold value was set to ⅛^th of the maximal measured fluorescence signal of the reference target.” for “value.”
# T1 sequence (P0DUD6 whole entry): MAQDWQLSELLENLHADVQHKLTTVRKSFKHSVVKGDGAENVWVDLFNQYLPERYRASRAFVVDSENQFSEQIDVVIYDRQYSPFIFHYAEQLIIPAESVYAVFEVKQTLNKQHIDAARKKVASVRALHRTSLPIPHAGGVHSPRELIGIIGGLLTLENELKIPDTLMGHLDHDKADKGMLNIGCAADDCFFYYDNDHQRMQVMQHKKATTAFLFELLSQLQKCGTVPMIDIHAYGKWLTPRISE
# T2 sequence (P0DUD6 whole entry): as above
Compound,amount of synthetic cyclic nucleotide giving a clear signal [1],depletion of cA3 by NucC [2],NucC activity retained ([3]; ATP concentration of 2 mM),effect of ATP on NucC ([3]; ATP concentrations above 500 μM)
"Nc1ncnc2c1ncn2[C@@H]1O[C@@H]2COP(=O)(O)O[C@H]3[C@@H](O)[C@H](n4cnc5c(N)ncnc54)O[C@@H]3COP(=O)(O)O[C@H]3[C@@H](O)[C@H](n4cnc5c(N)ncnc54)O[C@@H]3COP(=O)(O)O[C@H]2[C@H]1O [cA3, cyclic tri-adenylate]",≤ 10 pM,no significant depletion,,
Nc1ncnc2c1ncn2[C@@H]1O[C@H](COP(=O)(O)OP(=O)(O)OP(=O)(O)O)[C@@H](O)[C@H]1O [ATP],,,50%,minor adverse effect
